Patent US10526318B2, “Oral cannabinoid receptor modulator formulations” (THE CLEVELAND CLINIC FOUNDATION, priority 2018, dated 2020)

What was measured:
[1] = MDA7 GB/IB non-sink microcentrifuge dissolution test; format: physicochemical
Procedure: In the first round of testing, experiments were carried out using crystalline API, 25% MDA7: HPMCAS-H, 25% MDA7: Eudragit L100, 25/65/10%:HPMCAS-M:TPGS, 25/65/10% MDA7:PVP VA64:TPGS, and 40% MDA7: HPMCAS-M. The results of these experiments are shown in FIG. 1, and Table 1 below.

male beagle dogs = details: intravenous, 5 mg/mL in 20% HPβCD, Dog1001 and Dog1002
Procedure: The mixture was vortexed then stirred at room temperature for 93 minutes forming a clear yellow solution at a concentration of 5 mg/mL for intravenous dosing. The intravenous dose solution was sterile-filtered using a Millex GV PVDF 0.22 μm filter (Millipore) prior to dosing.
Using clean technique, an aliquot of the 5 mg/mL Group 1 formulation (2.8 mL) was combined with 20% HPβCD (4.2 mL), and vortexed to form a clear yellow solution at a concentration of 2 mg/mL for intravenous dosing.
A total of fifteen male beagle dogs (plus one spare animal) were selected from the Test Facility's colony of non-naïve animals. The animals were assigned to the study based on acceptable health as determined by a Test Facility veterinarian following a pre-study health status check. The pre-study health status check included a physical exam, serum chemistry and hematology evaluations. The animals were placed into five groups of three animals per group. All animals were fasted overnight prior to dose administration.
Each animal in Group 1 received the prepared test article as a 30-60 second intravenous injection by way of a temporary percutaneous catheter placed in a peripheral vein. Immediately after each intravenous dose, the catheter was flushed with 3 mL of saline prior to removal. […]

[2] = Microcentrifuge dissolution test, second round of SDD testing; format: physicochemical; details: 400 μgA/mL in 0.5 wt % SIF in PBS, pH 6.5, 37° C.
Procedure: In the second round of testing, experiments were carried out using crystalline API (active pharmaceutical ingredient; MDA7), 10% MDA7 in HPMCAS-M SDD, 25% MDA7 in HPMCAS-M SDD, 25% MDA7 in HPMCAS-L SDD, and 25% MDA7:PVP VA64 SDD. The test conditions were 400 μgA/mL in 0.5 wt % SIF in PBS, pH 6.5, 37° C.

mice = details: cited from earlier work

SMILES	AUC90 [1]	C90 [1]	C1200 [1]	Cmax90 [1]	Ultra90 [1]	Ultra1200 [1]	clinical effects observed following dosing (male beagle dogs)	AUC90 [2]	C90 [2]	C1200 [2]	Cmax90 [2]	Ultra90 [2]	Ultra1200 [2]	effect on food intake (mice)
CC1(Cc2ccccc2)COc2cc(C(=O)N3CCCCC3)ccc21 (centres unmarked) [Crystalline API, 3-benzyl-3-methyl-2,3-dihydrobenzofuran-6-carboxylic acid-piperidine amide]	2,360 min*μg/mL	31 µg/mL	31 µg/mL	31000 ng/mL	31 µg/mL	31 µg/mL	adverse clinical effects	2,010 min*μg/mL	24 µg/mL	28 µg/mL	27000 ng/mL	20 µg/mL	24 µg/mL	–
Cc1c(C(=O)NN2CCCCC2)nn(-c2ccc(Cl)cc2Cl)c1-c1ccc(Cl)cc1 [SR141716A]	–	–	–	–	–	–	–	–	–	–	–	–	–	reduces food intake
